Results on one compound are retold here after patent publication US5262417A, “Antibacterial quinolone compounds” (The Upjohn Company, priority 1991, dated 1993).

What all share (test): Minimum inhibitory concentration (MIC) by agar dilution
Holding throughout (type): cell-based
For orientation: Agar dilution tests growth on a series of plates holding different concentrations.

For assay [1], the system named is Acinetobacter calcoaceticus. The conditions noted are these: for MIC: Acinetobacter calcoaceticus. The procedure, abridged:
(§1)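 Compounds were serially diluted into molten unsupplemented Mueller Hinton agar at 47° C and plates were poured. Bacteria grown overnight on MHA at 35° C were brought to 0.5 McFarland turbidity in Trypticase soy broth, diluted 1:20 and spot-inoculated with a Steers replicator.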

Another assay concerns Citerobacter freundii. The procedure, abridged:
as §1

Another assay deals with Proteus penneri. Conditions: for MIC: Proteus penneri. Put shortly: as §1
The next assay deals with Streptococcus faecalis. The conditions noted are these: Enterococcus faecalis. Put shortly: as §1
The test system of another assay is Streptococcus pyogenes. The conditions noted are these: for MIC: Streptococcus pyogenes. The procedure, abridged: as §1
[2] abbreviates: 20 h, read-out: MINIMUM INHIBITORY CONCENTRATION

≈ marks a conversion by molar mass, not a printed value. Where “and” joins values, the source holds several entries; their conditions need not be identical. Identical values can stand only once. Like-named read-outs stand apart in the source and are kept apart here.

With `O=C(O)c1cn(C2CC2)c2cc(N3CCNCC3)c(F)cc2c1=O` [Ciprofloxacin, reference compound], the MIC in assay [1] (20 h, read-out: MINIMUM INHIBITORY CONCENTRATION, Cult No. 12170, MHA) was 0.25 µg/mL (≈ 0.754 µM); in assay [1] (UC12170, 20 h, read-out: Minimum Inhibitory Concentration, A. calcoaceticus UC 12170, Table CI) it was 0.25 µg/mL (≈ 0.754 µM); in the assay with Citerobacter freundii (setting [2]), less than 0.008 µg/mL; with Citerobacter freundii (Citrobacter freundii, UC3507, 20 h, read-out: Minimum Inhibitory Concentration), less than 0.008 µg/mL; with Proteus penneri (20 h, read-out: MINIMUM INHIBITORY CONCENTRATION, Cult No. 9679, MHA), 0.015 µg/mL (≈ 0.0453 µM); with Proteus penneri (UC9679, 20 h, read-out: Minimum Inhibitory Concentration, P. penneri UC 9679, Table CI), 0.015 µg/mL (≈ 0.0453 µM). The MIC with Streptococcus faecalis (setting [2]) was 0.5 µg/mL (≈ 1.51 µM); in the assay on Streptococcus faecalis (UC9217, 20 h, read-out: Minimum Inhibitory Concentration), 0.5 µg/mL (≈ 1.51 µM); with Streptococcus pyogenes (20 h, read-out: MINIMUM INHIBITORY CONCENTRATION, Cult No. 152, MHA), 0.25 µg/mL (≈ 0.754 µM); with Streptococcus pyogenes (UC152, 20 h, read-out: Minimum Inhibitory Concentration, S. pyogenes UC 152, Table CI), 0.25 µg/mL (≈ 0.754 µM). Moreover, the “MINIMUM INHIBITORY CONCENTRATION” value in assay [1] (Cult No. 12170, MHA) is 0.25 mcg per ml and 0.125 mcg per ml; in the assay on Proteus penneri (Cult No. 9679, MHA), 0.03 mcg per ml and 0.015 mcg per ml; in the assay on Streptococcus pyogenes (Cult No. 152, MHA) it was 0.25 mcg per ml and 0.125 mcg per ml.
